From PubChem BioAssay AID248 (DTP/NCI, 2004)
Several values for one entry are separate records, joined by “and”; a condition that tells them apart may be missing. Equal entries are not always repeated. Toxic doses and inconclusive results are not listed.

Test system: L1210 leukemia ip in BDF1 mice, survival T/C
Experiment: NCI In Vivo Anticancer Drug Screen. Data for tumor model L1210 Leukemia (intraperitoneal) in B6D2F1 (BDF1) mice
Conditions: endpoint: mean survival time, higher = longer survival
How it was run: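 In this screen, tumor-bearing mice given compound are compared to those given vehicle, and their survival values are reported as a treated-to-control quotient.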

[1] = dose: 100.0 mg/kg/injection, schedule: Q01DX001 (ip), vehicle: saline
[2] = dose: 200.0 mg/kg/injection, schedule: Q01DX001 (ip), vehicle: saline
[3] = dose: 100.0 mg/kg/injection, schedule: Q04DX003 (ip), vehicle: saline with Tween-80
[4] = dose: 200.0 mg/kg/injection, schedule: Q04DX003 (ip), vehicle: saline with Tween-80
[5] = dose: 400.0 mg/kg/injection, schedule: Q04DX003 (ip), vehicle: saline with Tween-80
[6] = dose: 100.0 mg/kg/injection, schedule: Q01DX009 (ip), vehicle: Klucel (hydroxypropylcellulose) (HPC)
[7] = dose: 200.0 mg/kg/injection, schedule: Q01DX009 (ip), vehicle: Klucel (hydroxypropylcellulose) (HPC)
[8] = dose: 400.0 mg/kg/injection, schedule: Q01DX009 (ip), vehicle: Klucel (hydroxypropylcellulose) (HPC)

COC1=C(NCCc2ccccc2)C(=O)C(OC)=C(NCCc2ccccc2)C1=O
T/C (dose: 50.0 mg/kg/injection, schedule: Q01DX001 (ip), vehicle: carboxymethylcellulose (CMC)): 96 % of control | T/C (dose: 100.0 mg/kg/injection, schedule: Q01DX001 (ip), vehicle: carboxymethylcellulose (CMC)): 94 % of control | T/C (dose: 200.0 mg/kg/injection, schedule: Q01DX001 (ip), vehicle: carboxymethylcellulose (CMC)): 89 % of control | T/C (dose: 400.0 mg/kg/injection, schedule: Q01DX001 (ip), vehicle: carboxymethylcellulose (CMC)): 89 % of control

O=C(NCCCl)NC1C(O)OC(CO)C(O)C1O (centres undefined)
T/C (dose: 25.0 mg/kg/injection, schedule: Q01DX009 (ip), vehicle: water): 95 % of control | T/C (dose: 50.0 mg/kg/injection, schedule: Q01DX009 (ip), vehicle: water): 110 % of control | T/C [1]: 97 % of control | T/C (dose: 100.0 mg/kg/injection, schedule: Q01DX009 (ip), vehicle: water): 105 % of control | T/C [2]: 98 % of control | T/C (dose: 200.0 mg/kg/injection, schedule: Q01DX009 (ip), vehicle: water): 100 % of control | T/C (dose: 400.0 mg/kg/injection, schedule: Q01DX001 (ip), vehicle: saline): 96 % of control | T/C (dose: 400.0 mg/kg/injection, schedule: Q01DX009 (ip), vehicle: water): 97 % of control

NC1CCC(c2ccccc2)(c2ccccc2)C1=O (centres undefined)
T/C (dose: 75.0 mg/kg/injection, schedule: Q01DX001 (ip), vehicle: saline): 100 % of control | T/C (dose: 150.0 mg/kg/injection, schedule: Q01DX001 (ip), vehicle: saline): 102 % of control

NC(c1ccccc1)c1c(O)ccc2ccccc12 (centres undefined)
T/C (dose: 100.0 mg/kg/injection, schedule: Q01DX009 (ip), vehicle: gum acacia): 96 % of control | T/C [3]: 101 % of control | T/C (dose: 200.0 mg/kg/injection, schedule: Q01DX009 (ip), vehicle: gum acacia): 98 % of control | T/C [4]: 93 % of control | T/C (dose: 400.0 mg/kg/injection, schedule: Q01DX009 (ip), vehicle: gum acacia): 91 % of control | T/C [5]: 98 % of control

CCCOc1cccc(N)c1
T/C (dose: 50.0 mg/kg/injection, schedule: Q01DX001 (ip), vehicle: saline): 96 % of control | T/C [1]: 91 % of control | T/C [2]: 93 % of control

Cc1cc(C(C)(C)C)cc(C)c1O
T/C [6]: 97 % of control | T/C (dose: 100.0 mg/kg/injection, schedule: Q04DX003 (ip), vehicle: Klucel (hydroxypropylcellulose) (HPC)): 95 % of control | T/C [7]: 100 % of control | T/C (dose: 200.0 mg/kg/injection, schedule: Q04DX003 (ip), vehicle: Klucel (hydroxypropylcellulose) (HPC)): 95 % of control | T/C [8]: 97 % of control | T/C (dose: 400.0 mg/kg/injection, schedule: Q04DX003 (ip), vehicle: Klucel (hydroxypropylcellulose) (HPC)): 95 % of control

CCCCN(C)N=Nc1ccc(CCCC(=O)OCC)cc1
T/C (dose: 12.5 mg/kg/injection, schedule: Q01DX009 (ip), vehicle: Klucel (hydroxypropylcellulose) (HPC)): 108 % of control | T/C (dose: 20.0 mg/kg/injection, schedule: Q01DX009 (ip), vehicle: saline): 107 % of control | T/C (dose: 25.0 mg/kg/injection, schedule: Q01DX009 (ip), vehicle: Klucel (hydroxypropylcellulose) (HPC)): 106 % of control | T/C (dose: 35.0 mg/kg/injection, schedule: Q01DX009 (ip), vehicle: saline): 121 % of control | T/C (dose: 50.0 mg/kg/injection, schedule: Q01DX009 (ip), vehicle: Klucel (hydroxypropylcellulose) (HPC)): 110 % of control | T/C (dose: 50.0 mg/kg/injection, schedule: Q01DX009 (ip), vehicle: saline): 195 % of control | T/C (dose: 55.0 mg/kg/injection, schedule: Q01DX009 (ip), vehicle: saline): 101 % of control and 109 % of control | T/C (dose: 84.0 mg/kg/injection, schedule: Q01DX009 (ip), vehicle: saline): 107 % of control and 115 % of control | T/C [6]: 123 % of control | T/C (dose: 100.0 mg/kg/injection, schedule: Q01DX009 (ip), vehicle: saline): 101 % of control | T/C (dose: 100.0 mg/kg/injection, schedule: Q04DX003 (ip), vehicle: saline): 119 % of control | T/C (dose: 125.0 mg/kg/injection, schedule: Q01DX009 (ip), vehicle: saline): 114 % of control and 119 % of control

C[Se]c1ncnc2c1ccn2C1OC(CO)C(O)C1O (centres undefined)
T/C (dose: 12.5 mg/kg/injection, schedule: Q01DX005 (ip), vehicle: saline): 104 % of control | T/C (dose: 25.0 mg/kg/injection, schedule: Q01DX005 (ip), vehicle: saline): 106 % of control | T/C (dose: 50.0 mg/kg/injection, schedule: Q01DX005 (ip), vehicle: saline): 102 % of control

CN(CCO)N=Nc1ccccc1C(N)=O
T/C (dose: 100.0 mg/kg/injection, schedule: Q01DX009 (ip), vehicle: saline with Tween-80): 117 % of control | T/C [3]: 105 % of control | T/C [4]: 110 % of control | T/C (dose: 400.0 mg/kg/injection, schedule: Q01DX009 (ip), vehicle: saline with Tween-80): 162 % of control and 177 % of control | T/C [5]: 104 % of control | T/C (dose: 600.0 mg/kg/injection, schedule: Q01DX009 (ip), vehicle: saline with Tween-80): 176 % of control

CC1=C(C)C2(C)C(C)(O)C(C)(O)C12C (centres undefined)
T/C (dose: 75.0 mg/kg/injection, schedule: Q01DX001 (ip), vehicle: acetone): 97 % of control | T/C (dose: 75.0 mg/kg/injection, schedule: Q04DX003 (ip), vehicle: saline with Tween-80): 87 % of control | T/C (dose: 150.0 mg/kg/injection, schedule: Q01DX001 (ip), vehicle: acetone): 102 % of control | T/C (dose: 300.0 mg/kg/injection, schedule: Q01DX001 (ip), vehicle: acetone): 102 % of control

Cc1ccc2c(C)c3c(ccc4ccccc43)c[n+]2c1
T/C (dose: 0.36 mg/kg/injection, schedule: Q01DX015 (ip), vehicle: saline): 110 % of control | T/C (dose: 0.55 mg/kg/injection, schedule: Q01DX015 (ip), vehicle: saline): 104 % of control | T/C (dose: 0.83 mg/kg/injection, schedule: Q01DX015 (ip), vehicle: saline): 110 % of control | T/C (dose: 1.25 mg/kg/injection, schedule: Q01DX015 (ip), vehicle: saline): 105 % of control and 112 % of control | T/C (dose: 2.5 mg/kg/injection, schedule: Q01DX015 (ip), vehicle: saline): 103 % of control | T/C (dose: 2.5 mg/kg/injection, schedule: Q04DX003 (ip), vehicle: saline): 101 % of control | T/C (dose: 5.0 mg/kg/injection, schedule: Q01DX001 (ip), vehicle: saline): 94 % of control | T/C (dose: 5.0 mg/kg/injection, schedule: Q01DX015 (ip), vehicle: saline): 111 % of control | T/C (dose: 5.0 mg/kg/injection, schedule: Q04DX003 (ip), vehicle: saline): 95 % of control | T/C (dose: 10.0 mg/kg/injection, schedule: Q01DX001 (ip), vehicle: saline): 96 % of control | T/C (dose: 10.0 mg/kg/injection, schedule: Q01DX015 (ip), vehicle: saline): 110 % of control and 117 % of control | T/C (dose: 10.0 mg/kg/injection, schedule: Q04DX003 (ip), vehicle: saline): 111 % of control | T/C (dose: 20.0 mg/kg/injection, schedule: Q01DX001 (ip), vehicle: saline): 102 % of control | T/C (dose: 20.0 mg/kg/injection, schedule: Q04DX003 (ip), vehicle: saline): 113 % of control

O=[N+]([O-])c1ccc(Oc2ccc(S(=O)(=O)c3ccc(Oc4ccc([N+](=O)[O-])cc4)c([N+](=O)[O-])c3)cc2[N+](=O)[O-])cc1
T/C (dose: 100.0 mg/kg/injection, schedule: Q01DX005 (ip), vehicle: Klucel (hydroxypropylcellulose) (HPC)): 101 % of control | T/C [6]: 102 % of control | T/C (dose: 100.0 mg/kg/injection, schedule: Q04DX002 (ip), vehicle: Klucel (hydroxypropylcellulose) (HPC)): 110 % of control | T/C (dose: 200.0 mg/kg/injection, schedule: Q01DX005 (ip), vehicle: Klucel (hydroxypropylcellulose) (HPC)): 97 % of control | T/C [7]: 102 % of control | T/C (dose: 200.0 mg/kg/injection, schedule: Q04DX002 (ip), vehicle: Klucel (hydroxypropylcellulose) (HPC)): 96 % of control | T/C (dose: 400.0 mg/kg/injection, schedule: Q01DX005 (ip), vehicle: Klucel (hydroxypropylcellulose) (HPC)): 90 % of control | T/C [8]: 98 % of control | T/C (dose: 400.0 mg/kg/injection, schedule: Q04DX002 (ip), vehicle: Klucel (hydroxypropylcellulose) (HPC)): 100 % of control

Nc1nc(N)c(N=O)c(Nc2ccc(Br)cc2)n1
T/C (dose: 60.0 mg/kg/injection, schedule: Q01DX Z (ip), vehicle: methylcellulose (MC)): 108 % of control | T/C (dose: 120.0 mg/kg/injection, schedule: Q01DX Z (ip), vehicle: methylcellulose (MC)): 103 % of control
